# Test results taken from PMC12669672, “Structural insights into selective and dual antagonism of EP2 and EP4 prostaglandin receptors” (The EMBO Journal, 2025).
# “And” between values parts separate entries of the source, which are not always exact repeats. Equal entries are not always repeated. “Also recorded” adds a separate entry of the source. Where two headings read alike, the source gives them in different places.
# Assays:
# Experiment in all cases: GloSensor cAMP assay, antagonism of PGE2-induced cAMP
# Format in all cases: cell-based
# EP4 WT = target: T1, EP4 WT (Homo sapiens, UniProt P35408); conditions: for remaining activity at 10 µM / remaining activity at 1 µM / remaining activity at 0.1 µM / remaining activity at 0.01 µM / remaining activity at 0.001 µM / remaining activity at 0.0001 µM / remaining activity at 10 pM / remaining activity at 1 pM: 1 h; for remaining activity at 0.1 µM: Grapiprant log([M]) -7
# T1 construct: The full-length EP2 or EP4 was cloned into the pcDNA3.1 vector; FLAG (N); expressed in transfected cells; host or cells: AD293 cells
# Description: (§1) The full-length EP2 or EP4 was cloned into the pcDNA3.1 vector (Invitrogen), incorporating an N-terminal FLAG tag. AD293 cells were seeded in six-well plates containing DMEM supplemented with 10% dialyzed FBS 1 day prior to transfection. Following overnight growth, cells were transfected with a 1:1 ratio of receptor construct and GloSensor22F cAMP biosensor (Promega) plasmids.
# (§2) Twenty-four hours post-transfection, the cells were transferred to CO2-independent media containing 2% GloSensor cAMP Reagent (Promega) and distributed into 384-well assay plates at a density of 4000 cells per well in 10 μL. […] The plates were then incubated at 37 °C for an additional hour before luminescence measurements were taken using an EnVision plate reader.
# (§3) Data analysis was performed using GraphPad Prism software v8.0.1. A nonlinear regression analysis, employing a sigmoidal dose–response model, was conducted to determine the Emax values and half-maximum inhibitory concentrations (IC50) for each compound tested.
# EP4 V72A = target: T2, EP4 V72A (Homo sapiens, UniProt P35408, V72A); conditions: for cAMP activity (∆pIC50 from EP4 WT): Grapiprant, V72A; for ΔpIC50: PGE2 0.5 nM, pIC50 mutant - pIC50 WT, mean
# T2 construct: The full-length EP2 or EP4 was cloned into the pcDNA3.1 vector; FLAG (N); expressed in transfected cells; host or cells: AD293 cells
# Description: as §1, §2, §3
# EP4 V320A = target: T3, EP4 V320A (Homo sapiens, UniProt P35408, V320A); conditions: for ΔpIC50: PGE2 0.5 nM, pIC50 mutant - pIC50 WT, mean
# T3 construct: The full-length EP2 or EP4 was cloned into the pcDNA3.1 vector (Invitrogen), incorporating an N-terminal FLAG tag; expressed in transfected cells; host or cells: AD293
# Description: as §1, §2, §3
# EP4 S319A = target: T4, EP4 S319A (Homo sapiens, UniProt P35408, S319A); conditions: for cAMP activity (∆pIC50 from EP4 WT): Grapiprant, S319A; for ΔpIC50: PGE2 0.5 nM, pIC50 mutant - pIC50 WT, mean
# T4 construct: The full-length EP2 or EP4 was cloned into the pcDNA3.1 vector (Invitrogen), incorporating an N-terminal FLAG tag; expressed in transfected cells; host or cells: AD293
# Description: as §1, §2, §3
# EP2 WT = EP2 WT (Homo sapiens, UniProt P43116); set-up: The full-length EP2 or EP4 was cloned into the pcDNA3.1 vector; FLAG (N); expressed in transfected cells; host or cells: AD293 cells; conditions: 1 h, single experiments 1st-3rd, Fig. S1A
# Description: as §1, §2, §3
# [1] = 1 h, Grapiprant log([M]) -7, read-out: % cAMP activity (normalized to WT)
# [2] = 1 h, Grapiprant log([M]) -8, read-out: % cAMP activity (normalized to WT)
# [3] = 1 h, Grapiprant log([M]) -9, read-out: % cAMP activity (normalized to WT)
# [4] = 1 h, Grapiprant log([M]) -10, read-out: % cAMP activity (normalized to WT)
# [5] = 1 h, Grapiprant log([M]) -11, read-out: % cAMP activity (normalized to WT)
# [6] = 1 h, Grapiprant log([M]) -12, read-out: % cAMP activity (normalized to WT)
# T3 sequence (P35408 whole entry V320A): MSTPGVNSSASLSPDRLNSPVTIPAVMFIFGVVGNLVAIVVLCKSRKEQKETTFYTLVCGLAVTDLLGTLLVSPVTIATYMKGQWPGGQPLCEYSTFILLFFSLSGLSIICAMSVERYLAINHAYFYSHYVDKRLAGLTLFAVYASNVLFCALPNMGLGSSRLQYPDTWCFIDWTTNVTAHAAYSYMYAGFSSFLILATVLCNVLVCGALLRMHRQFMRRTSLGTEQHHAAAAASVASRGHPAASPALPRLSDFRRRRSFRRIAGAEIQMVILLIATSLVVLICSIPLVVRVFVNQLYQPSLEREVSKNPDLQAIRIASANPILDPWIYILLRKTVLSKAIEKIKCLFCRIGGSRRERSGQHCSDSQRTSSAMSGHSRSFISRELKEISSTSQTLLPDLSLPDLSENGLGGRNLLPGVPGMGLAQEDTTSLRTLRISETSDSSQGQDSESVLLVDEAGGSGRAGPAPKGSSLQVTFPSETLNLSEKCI
# T4 sequence (P35408 whole entry S319A): as the sequence (P35408 whole entry V320A) above, with S319A, A320V counted along it
# T2 sequence (P35408 whole entry V72A): as the sequence (P35408 whole entry V320A) above, with V72A, A320V counted along it
# EP2 WT, sequence (P43116 whole entry): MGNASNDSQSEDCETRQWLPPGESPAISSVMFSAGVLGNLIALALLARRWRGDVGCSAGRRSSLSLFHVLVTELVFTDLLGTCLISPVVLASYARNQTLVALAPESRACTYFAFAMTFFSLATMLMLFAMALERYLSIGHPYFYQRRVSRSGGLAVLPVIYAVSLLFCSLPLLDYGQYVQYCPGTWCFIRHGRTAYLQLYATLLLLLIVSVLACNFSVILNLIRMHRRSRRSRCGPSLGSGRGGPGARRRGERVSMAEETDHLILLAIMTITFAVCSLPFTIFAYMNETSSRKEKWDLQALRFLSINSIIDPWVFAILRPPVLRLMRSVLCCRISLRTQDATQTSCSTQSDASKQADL
# T1 sequence (P35408 whole entry): as the sequence (P35408 whole entry V320A) above, with A320V counted along it
structure (smiles),measurement,setting,value
CCc1nc2c(C)nc(C)cc2n1-c1ccc(CCNC(=O)NS(=O)(=O)c2ccc(C)cc2)cc1 [Grapiprant],IC50,EP4 WT,35.5 nM
same,remaining activity at 10 µM,"EP4 WT; Grapiprant log([M]) -5, read-out: % cAMP activity (normalized to WT)",2.75%
same,remaining activity at 1 µM,"EP4 WT; Grapiprant log([M]) -6, read-out: % cAMP activity (normalized to WT)",3.71%
same,remaining activity at 0.1 µM,EP4 WT; read-out: % cAMP activity (normalized to WT),21%
same,remaining activity at 0.1 µM,"EP4 WT; single experiments 1st-3rd, Fig. S7C, read-out: % cAMP activity (normalized to WT)",30.1%
same,remaining activity at 0.01 µM,"EP4 WT; Grapiprant log([M]) -8, read-out: % cAMP activity (normalized to WT)",83.1%
same,remaining activity at 0.01 µM,"EP4 WT; Grapiprant log([M]) -8, single experiments 1st-3rd, Fig. S7C, read-out: % cAMP activity (normalized to WT)",88.1%
same,remaining activity at 0.001 µM,"EP4 WT; Grapiprant log([M]) -9, read-out: % cAMP activity (normalized to WT)",96.3%
same,remaining activity at 0.0001 µM,"EP4 WT; Grapiprant log([M]) -10, read-out: % cAMP activity (normalized to WT)",90.2%
same,remaining activity at 0.0001 µM,"EP4 WT; Grapiprant log([M]) -10, single experiments 1st-3rd, Fig. S7C, read-out: % cAMP activity (normalized to WT)",96.7%
same,remaining activity at 10 pM,"EP4 WT; Grapiprant log([M]) -11, read-out: % cAMP activity (normalized to WT)",97.9%
same,remaining activity at 10 pM,"EP4 WT; Grapiprant log([M]) -11, single experiments 1st-3rd, Fig. S7C, read-out: % cAMP activity (normalized to WT)",101%
same,remaining activity at 1 pM,"EP4 WT; Grapiprant log([M]) -12, read-out: % cAMP activity (normalized to WT)",103%
same,remaining activity at 1 pM,"EP4 WT; Grapiprant log([M]) -12, single experiments 1st-3rd, Fig. S7C, read-out: % cAMP activity (normalized to WT)",93.3%
same,remaining activity at 10 µM,"EP4 WT; read-out: % cAMP activity EP4 (normalized to Grapiprant), ligand log([M]) -5, single experiments 1st-3rd, Fig. S1A",2.69%
same,remaining activity at 1 µM,"EP4 WT; read-out: % cAMP activity EP4 (normalized to Grapiprant), ligand log([M]) -6, single experiments 1st-3rd, Fig. S1A",5.1%
same,remaining activity at 0.01 µM,"EP4 WT; read-out: % cAMP activity EP4 (normalized to Grapiprant), ligand log([M]) -8, single experiments 1st-3rd, Fig. S1A",94.2%
same,remaining activity at 0.001 µM,"EP4 WT; read-out: % cAMP activity EP4 (normalized to Grapiprant), ligand log([M]) -9, single experiments 1st-3rd, Fig. S1A",97%
same,remaining activity at 0.0001 µM,"EP4 WT; read-out: % cAMP activity EP4 (normalized to Grapiprant), ligand log([M]) -10, single experiments 1st-3rd, Fig. S1A",100%
same,remaining activity at 10 pM,"EP4 WT; read-out: % cAMP activity EP4 (normalized to Grapiprant), ligand log([M]) -11, single experiments 1st-3rd, Fig. S1A",93.5%
same,remaining activity at 1 pM,"EP4 WT; read-out: % cAMP activity EP4 (normalized to Grapiprant), ligand log([M]) -12, single experiments 1st-3rd, Fig. S1A",102%
same,cAMP activity (∆pIC50 from EP4 WT),"EP4 WT; Grapiprant, WT, single experiments 1st-3rd",0.1372 and 0.1162 and -0.1508
same,antagonism profile EP4 versus EP2 (in words),"EP4 WT; cAMP accumulation assay upon PGE2 stimulation, Appendix Fig. S1A","selective antagonists of EP2 and EP4, respectively; also recorded: strong selectivity"
same,IC50,EP4 V72A,110 nM
same,remaining activity at 0.1 µM,EP4 V72A; [1],25.9%
same,remaining activity at 0.01 µM,EP4 V72A; [2],35.8%
same,remaining activity at 0.001 µM,EP4 V72A; [3],45%
same,remaining activity at 0.0001 µM,EP4 V72A; [4],46.7%
same,remaining activity at 10 pM,EP4 V72A; [5],54.1%
same,remaining activity at 1 pM,EP4 V72A; [6],41%
same,cAMP activity (∆pIC50 from EP4 WT),EP4 V72A; Mean,-0.294
same,cAMP activity (∆pIC50 from EP4 WT),EP4 V72A; single experiments 1st-3rd,-0.217 and -0.413 and -0.252
same,ΔpIC50,EP4 V72A,-0.29 ± 0.06
same,ΔpIC50,EP4 V72A; listed as grapiprant,reduced the potency
same,IC50,EP4 V320A,339 nM
same,remaining activity at 0.0001 µM,EP4 V320A; [4],39.6%
same,cAMP activity (∆pIC50 from EP4 WT),"EP4 V320A; Grapiprant, V320A, Mean",-0.775
same,ΔpIC50,EP4 V320A,-0.78 ± 0.12
same,ΔpIC50,EP4 V320A; listed as grapiprant,reduced the potency
same,IC50,EP4 S319A,186 nM
same,remaining activity at 10 µM,"EP4 S319A; 1 h, Grapiprant log([M]) -5, read-out: % cAMP activity (normalized to WT)",3.59%
same,remaining activity at 1 µM,"EP4 S319A; 1 h, Grapiprant log([M]) -6, read-out: % cAMP activity (normalized to WT)",3.85%
same,remaining activity at 0.1 µM,EP4 S319A; [1],22.9%
same,remaining activity at 0.01 µM,EP4 S319A; [2],31.9%
same,remaining activity at 0.001 µM,EP4 S319A; [3],32.1%
same,remaining activity at 0.0001 µM,EP4 S319A; [4],27.9%
same,remaining activity at 10 pM,EP4 S319A; [5],33%
same,remaining activity at 1 pM,EP4 S319A; [6],28.4%
same,cAMP activity (∆pIC50 from EP4 WT),EP4 S319A; Mean,-0.645
same,cAMP activity (∆pIC50 from EP4 WT),EP4 S319A; single experiments 1st-3rd,-0.523 and -0.642 and -0.769
same,ΔpIC50,EP4 S319A,-0.64 ± 0.07
same,ΔpIC50,EP4 S319A; listed as grapiprant,reduced the potency
same,remaining activity at 10 µM,"EP2 WT; read-out: % cAMP activity on EP2 (normalized to PF-04418948), ligand log([M]) -5",90.7%
same,remaining activity at 1 µM,"EP2 WT; read-out: % cAMP activity on EP2 (normalized to PF-04418948), ligand log([M]) -6",105%
same,remaining activity at 0.1 µM,"EP2 WT; read-out: % cAMP activity on EP2 (normalized to PF-04418948), ligand log([M]) -7",107%
same,remaining activity at 0.01 µM,"EP2 WT; read-out: % cAMP activity on EP2 (normalized to PF-04418948), ligand log([M]) -8",113%
same,remaining activity at 0.001 µM,"EP2 WT; read-out: % cAMP activity on EP2 (normalized to PF-04418948), ligand log([M]) -9",115%
same,remaining activity at 0.0001 µM,"EP2 WT; read-out: % cAMP activity on EP2 (normalized to PF-04418948), ligand log([M]) -10",114%
same,remaining activity at 10 pM,"EP2 WT; read-out: % cAMP activity on EP2 (normalized to PF-04418948), ligand log([M]) -11",120%
same,remaining activity at 1 pM,"EP2 WT; read-out: % cAMP activity on EP2 (normalized to PF-04418948), ligand log([M]) -12",107%
